Data taken from paper PMC11272821, “Mechanistic safety assessment via multi-omic characterisation of systemic pathway perturbations following in vivo MAT2A inhibition” (Archives of Toxicology, 2024).

Test system: rat liver proteome
Assay: Liver label-free quantitative proteomics
Type: in vivo
Experimental: Liver tissue were homogenized in PreOmics iST buffer (PreOmics) using a bead ruptor. […] Peptides were purified using PreOmics iST cartridges and vacuum-centrifuged to dryness. Peptides were subsequently reconstituted in 2 vol% ACN and 0.1 vol% formic acid for single-run LC–MS analysis. Peptides were analyzed using a Thermo EASY-nLC1200 coupled online to an Exploris 480 Mass Spectrometer equipped with a Nanospray Flex Ion Source integrated with a column oven (PRSO-V1, Sonation) and a FAIMS unit. Peptides were separated using a nonlinear gradient and analyzed by acquiring spectra through Data Independent Acquisition (DIA). Data was analyzed using Spectronaut V15.7.2 (Biognosys AG) direct DIA analysis using an isoform Rat database (UniProt downloaded 22.02.2021) consisting of 9,746 protein entries utilizing the Pulsar search engine. Analysis settings were maintained to factory settings and identification was set to 1% false discovery rate (FDR) for precursor and protein level. Additional information is provided in Supplementary M&M.
Data analysis was performed using R Statistical Software (version 4.3.0). Proteomics, transcriptomics and metabolomics expression changes were visualised using heatmaps showing log2 fold change relative to control. In the heatmaps missing values were highlighted in grey.
Proteomics Analysis. Liver tissue was placed in vials containing 1.4 mm zirconia beads and taken up in 500 µL of PreOmics iST buffer (PreOmics). In a cold room set to 4 °C, tissues were homogenized utilizing a bead Ruptor 12 by shaking for 30 seconds for a total of 5 times using ‘high’ setting. Lysate was normalized using BCA assay (Thermo Fisher Scientific), and subsequently incubated at 95 °C for 10 min for reduction, and alkylation of proteins. A total of 50 μg from each sample was subjected to enzymatic cleavage for 3 h by adding equal amounts of endoproteinase Lys-C and trypsin (ThermoFisher Scientific, # A40009) in a 1:50 (wt/wt) enzyme:protein ratio. De-salting and purification were performed according to the PreOmics iST protocol on a styrene divinylbenzene reversed-phase sulfonate sorbent. Purified peptides were vacuum-centrifuged to dryness and reconstituted in double-distilled water with 2 vol% ACN and 0.1 vol% formic acid (FA) for single-run LC-MS analysis.
Peptides were loaded onto a ReproSil-Pur 120 C18AQ 1.9 µm in-house packed to a 5 µm tip 75u ID × 360u × 50 cm column using Thermo EASY-nLC 1200 coupled online to an Exploris 480 Mass Spectrometer equipped with a Nanospray Flex Ion Source integrated with a column oven (PRSO-V1, Sonation) maintained at 50 °C. Peptides were separated using a nonlinear gradient: Mobile phase A was 0.1 vol% FA and 3 vol% acetonitrile (ACN) in water, Mobile phase B was 90 vol% ACN and 0.1 vol % FA. The gradient was operated at 250 nL/min flowing 3 vol% B for 3 min, 3 to 5 vol% B over 3 min, 5 to 17 vol % B over 120 min, 17 to 24 vol % B over 26 min, 24 to 30 vol% B over 14 min, 30 to 85 vol% B over 3 min.

Cn1cc2cc(-c3cc4[nH]nc(C5CC5)c4n(-c4ccc(OC(F)F)cc4)c3=O)ccc2n1 [AZ’9567]
1.9: Tspo Log2FC (liver protein, 30mg/kg)
1.4: Tceanc2 Log2FC (liver protein, 10mg/kg) | Acsm2 Log2FC (liver protein, 30mg/kg) | Anpep Log2FC (liver protein, 30mg/kg)
1: Thg1l Log2FC (liver protein, 10mg/kg)
-0.7: Hexa Log2FC (liver protein, 10mg/kg) | Mospd1 Log2FC (liver protein, 10mg/kg) | Pklr.1 Log2FC (liver protein, 10mg/kg) | Sts Log2FC (liver protein, 10mg/kg) | Txnrd2 Log2FC (liver protein, 10mg/kg) | Apeh Log2FC (liver protein, 30mg/kg) | Ctbs Log2FC (liver protein, 30mg/kg) | Fasn Log2FC (liver protein, 30mg/kg) | Gimd1 Log2FC (liver protein, 30mg/kg) | Mospd1 Log2FC (liver protein, 30mg/kg) | Rgn Log2FC (liver protein, 30mg/kg)
-4.1: Cdo1 Log2FC (liver protein, 30mg/kg)
-2.4: Mat2b Log2FC (liver protein, 10mg/kg)
-0.9: Wdr45 Log2FC (liver protein, 10mg/kg) | Acly Log2FC (liver protein, 30mg/kg) | Acsl3 Log2FC (liver protein, 30mg/kg) | Baat Log2FC (liver protein, 30mg/kg) | Cyp2c23 Log2FC (liver protein, 30mg/kg) | Gstm2 Log2FC (liver protein, 30mg/kg)
6.5: Mt1 Log2FC (liver protein, 30mg/kg)
-1.3: Ptprs Log2FC (liver protein, 10mg/kg) | Slc6a13 Log2FC (liver protein, 10mg/kg) | Carnmt1 Log2FC (liver protein, 30mg/kg)
-2.8: Cbs Log2FC (liver protein, 30mg/kg) | Slc39a4 Log2FC (liver protein, 30mg/kg)
1.1: Hmgcs1 Log2FC (liver protein, 10mg/kg) | Hnrnpa1 Log2FC (liver protein, 10mg/kg) | Minpp1 Log2FC (liver protein, 10mg/kg) | Mtr Log2FC (liver protein, 10mg/kg) | Mybbp1a Log2FC (liver protein, 10mg/kg) | Bhmt2 Log2FC (liver protein, 30mg/kg) | Cyp4a10 Log2FC (liver protein, 30mg/kg) | Fabp4 Log2FC (liver protein, 30mg/kg) | Fdft1 Log2FC (liver protein, 30mg/kg) | Mtr Log2FC (liver protein, 30mg/kg)
0.6: Hsd17b7 Log2FC (liver protein, 10mg/kg) | Kalrn Log2FC (liver protein, 10mg/kg) | Pcyt1a Log2FC (liver protein, 10mg/kg) | Sh3glb1 Log2FC (liver protein, 10mg/kg) | Sqle Log2FC (liver protein, 10mg/kg) | Dkc1 Log2FC (liver protein, 30mg/kg) | Hsd17b7 Log2FC (liver protein, 30mg/kg) | Kalrn Log2FC (liver protein, 30mg/kg) | Mat1a Log2FC (liver protein, 30mg/kg) | Thg1l Log2FC (liver protein, 30mg/kg) | Ube2f Log2FC (liver protein, 30mg/kg)
2: Tspo Log2FC (liver protein, 10mg/kg) | Abcb1 Log2FC (liver protein, 30mg/kg)
-1.7: Tat Log2FC (liver protein, 10mg/kg)
-1.5: Me1 Log2FC (liver protein, 10mg/kg) | Abhd1 Log2FC (liver protein, 30mg/kg)
-0.8: Lipa Log2FC (liver protein, 10mg/kg) | Mettl7b Log2FC (liver protein, 10mg/kg) | Acsl1 Log2FC (liver protein, 30mg/kg) | Gstm1 Log2FC (liver protein, 30mg/kg) | S1pr1 Log2FC (liver protein, 30mg/kg)
-1.6: Mettl26 Log2FC (liver protein, 10mg/kg) | Ugt2b1 Log2FC (liver protein, 10mg/kg) | Fads1 Log2FC (liver protein, 30mg/kg) | Igf1 Log2FC (liver protein, 30mg/kg) | Tat Log2FC (liver protein, 30mg/kg)
-1.0: Fabp5 Log2FC (liver protein, 30mg/kg) | Me1 Log2FC (liver protein, 30mg/kg) | Mettl7b Log2FC (liver protein, 30mg/kg) | Ptprs Log2FC (liver protein, 30mg/kg) | Slc6a13 Log2FC (liver protein, 30mg/kg)
1.0: Hfe Log2FC (liver protein, 10mg/kg) | Hmgn2 Log2FC (liver protein, 10mg/kg) | Lrrc8d Log2FC (liver protein, 10mg/kg) | Rbm3 Log2FC (liver protein, 10mg/kg) | Aqp8 Log2FC (liver protein, 30mg/kg) | Asns Log2FC (liver protein, 30mg/kg) | Chid1 Log2FC (liver protein, 30mg/kg) | Eif4ebp1 Log2FC (liver protein, 30mg/kg) | Hfe Log2FC (liver protein, 30mg/kg) | Mybbp1a Log2FC (liver protein, 30mg/kg) | Pum3 Log2FC (liver protein, 30mg/kg) | Rbm3 Log2FC (liver protein, 30mg/kg)
-0.6: Rgn Log2FC (liver protein, 10mg/kg) | S1pr1 Log2FC (liver protein, 10mg/kg) | Acbd4 Log2FC (liver protein, 30mg/kg) | Acsl5 Log2FC (liver protein, 30mg/kg) | Comt Log2FC (liver protein, 30mg/kg) | Hexa Log2FC (liver protein, 30mg/kg) | Sts Log2FC (liver protein, 30mg/kg) | Txnrd2 Log2FC (liver protein, 30mg/kg)
2.0: Aldh1a1 Log2FC (liver protein, 30mg/kg)
1.5: Hnrnpa1 Log2FC (liver protein, 30mg/kg) | Minpp1 Log2FC (liver protein, 30mg/kg) | Orm1 Log2FC (liver protein, 30mg/kg)
0.9: Idi1 Log2FC (liver protein, 10mg/kg) | Lyrm2 Log2FC (liver protein, 10mg/kg) | Prmt1 Log2FC (liver protein, 10mg/kg) | Pum3 Log2FC (liver protein, 10mg/kg) | Sirt2 Log2FC (liver protein, 10mg/kg) | Ube2f Log2FC (liver protein, 10mg/kg) | Banf1 Log2FC (liver protein, 30mg/kg) | Brix1 Log2FC (liver protein, 30mg/kg) | Ca5a Log2FC (liver protein, 30mg/kg) | Nob1 Log2FC (liver protein, 30mg/kg) | mvd Log2FC (liver protein, 30mg/kg)
-1.1: Akap5 Log2FC (liver protein, 30mg/kg) | Als2 Log2FC (liver protein, 30mg/kg) | Apoc1 Log2FC (liver protein, 30mg/kg) | Csad Log2FC (liver protein, 30mg/kg) | Pklr.1 Log2FC (liver protein, 30mg/kg) | Ugt2b1 Log2FC (liver protein, 30mg/kg) | Wdr45 Log2FC (liver protein, 30mg/kg)
-1.8: Scd1 Log2FC (liver protein, 10mg/kg) | Mettl26 Log2FC (liver protein, 30mg/kg)
3.7: A2m Log2FC (liver protein, 30mg/kg)
-1.4: Slc22a8 Log2FC (liver protein, 30mg/kg) | Tpmt Log2FC (liver protein, 30mg/kg)
-0.5: Aldh16a1 Log2FC (liver protein, 30mg/kg) | Lipa Log2FC (liver protein, 30mg/kg)
5.3: Mt1 Log2FC (liver protein, 10mg/kg)
16.3: Ccnd1 Log2FC (liver protein, 30mg/kg)
1.7: Aldh1a7 Log2FC (liver protein, 30mg/kg) | Ces2c Log2FC (liver protein, 30mg/kg) | Gnmt Log2FC (liver protein, 30mg/kg)
467: differentially expressed liver proteins vs vehicle control (middle dose (10 mg/kg BID), adjusted p < 0.05 and Log2 FC > 0.5 or < −0.5)
-1.2: Igf1 Log2FC (liver protein, 10mg/kg) | Tpmt Log2FC (liver protein, 10mg/kg) | Acaca Log2FC (liver protein, 30mg/kg) | Aox1 Log2FC (liver protein, 30mg/kg) | Enpep Log2FC (liver protein, 30mg/kg)
-2.2: Slc39a4 Log2FC (liver protein, 10mg/kg)
0.5: Cfdp1 Log2FC (liver protein, 30mg/kg) | Fdps Log2FC (liver protein, 30mg/kg) | Sirt2 Log2FC (liver protein, 30mg/kg) | Ythdc1 Log2FC (liver protein, 30mg/kg)
0.7: Mat2a Log2FC (liver protein, 10mg/kg) | Rmdn1 Log2FC (liver protein, 10mg/kg) | Ythdc1 Log2FC (liver protein, 10mg/kg) | Coq4 Log2FC (liver protein, 30mg/kg) | Dbnl Log2FC (liver protein, 30mg/kg) | Dmgdh Log2FC (liver protein, 30mg/kg) | Dohh Log2FC (liver protein, 30mg/kg) | Lyrm2 Log2FC (liver protein, 30mg/kg) | Paics Log2FC (liver protein, 30mg/kg) | Prmt1 Log2FC (liver protein, 30mg/kg) | Pspc1 Log2FC (liver protein, 30mg/kg)
1.3: Cyp4a2 Log2FC (liver protein, 30mg/kg) | Dcakd Log2FC (liver protein, 30mg/kg) | Idi1 Log2FC (liver protein, 30mg/kg) | Srebf1 Log2FC (liver protein, 30mg/kg) | Tceanc2 Log2FC (liver protein, 30mg/kg)
-2.7: Mat2b Log2FC (liver protein, 30mg/kg)
0.8: Ncl Log2FC (liver protein, 10mg/kg) | Nob1 Log2FC (liver protein, 10mg/kg) | Paics Log2FC (liver protein, 10mg/kg) | Pspc1 Log2FC (liver protein, 10mg/kg) | Cdh1 Log2FC (liver protein, 30mg/kg) | Gmpr Log2FC (liver protein, 30mg/kg) | Gnl3 Log2FC (liver protein, 30mg/kg) | Gtpbp4 Log2FC (liver protein, 30mg/kg) | Lrrc8d Log2FC (liver protein, 30mg/kg) | Mat2a Log2FC (liver protein, 30mg/kg) | Ncl Log2FC (liver protein, 30mg/kg) | Pcyt1a Log2FC (liver protein, 30mg/kg) | Rmdn1 Log2FC (liver protein, 30mg/kg) | Sh3glb1 Log2FC (liver protein, 30mg/kg) | Sqle Log2FC (liver protein, 30mg/kg)
1.6: Hmgcs1 Log2FC (liver protein, 30mg/kg)
1.8: Alpl Log2FC (liver protein, 30mg/kg) | Bhmt Log2FC (liver protein, 30mg/kg) | Fgr Log2FC (liver protein, 30mg/kg) | Gpcpd1 Log2FC (liver protein, 30mg/kg)
1.2: Orm1 Log2FC (liver protein, 10mg/kg) | Srebf1 Log2FC (liver protein, 10mg/kg) | Hmgn2 Log2FC (liver protein, 30mg/kg)
-3.2: Scd1 Log2FC (liver protein, 30mg/kg)
